The values that follow come from ChEMBL document CHEMBL3608269, “Triazole-Linked Glycolipids Enhance the Susceptibility of MRSA to β-Lactam Antibiotics” (ACS Med Chem Lett, 2015).

Data set [1] concerns Staphylococcus aureus. The data set can be described thus: Potentiation of oxacillin-mediated antibacterial activity against methicillin-resistant Staphylococcus aureus R53 clinical isolate at 16 ug/ml after 20 to 24 hrs by CLSI method. Type of data set: functional.
The test system of data set [2] is Staphylococcus aureus. The experiment in a line: Downregulation of mecA mRNA expression in methicillin-resistant Staphylococcus aureus ATCC 43300 at 32 ug/ml after 4 hrs by RT-PCR analysis. The format is functional, organism-based.
The next data set concerns HEK293. The data set can be described thus: Cytotoxicity against HEK293 cells assessed as cell viability at 8 to 128 ug/ml by MTS assay. Conditions: human. The format is cell-based. (In general: Tetrazolium dyes change colour on reduction, which living cells bring about.)
Data set [3] deals with Staphylococcus aureus. The experiment in a line: Potentiation of oxacillin-mediated antibacterial activity against methicillin-resistant Staphylococcus aureus R313 clinical isolate at 32 ug/ml after 20 to 24 hrs by CLSI method. The format is functional.
In data set [4] the test system is Staphylococcus aureus. The experiment in a line: Potentiation of cefotiam-mediated antibacterial activity against methicillin-resistant Staphylococcus aureus ATCC 43300 assessed as decrease in cefotiam MIC at 32 ug/ml by checkerboard method relative to control. Type of data set: functional.
Data set [5] deals with Staphylococcus aureus. The experiment in a line: Potentiation of cefaclor-mediated antibacterial activity against methicillin-resistant Staphylococcus aureus ATCC 43300 assessed as decrease in cefaclor MIC at 32 ug/ml by checkerboard method relative to control. The format is functional.
The subject of data set [6] is Staphylococcus aureus. The experiment in a line: Potentiation of oxacillin-mediated antibacterial activity against methicillin-resistant Staphylococcus aureus ATCC 43300 assessed as decrease in oxacillin MIC at 32 ug/ml by checkerboard method relative to control. The format is functional.
The subject of data set [7] is Staphylococcus aureus. The data set can be described thus: Potentiation of oxacillin-mediated antibacterial activity against methicillin-resistant Staphylococcus aureus R50 clinical isolate at 16 ug/ml after 20 to 24 hrs by CLSI method. Type of data set: functional.
Data set [8] deals with Staphylococcus aureus. The data set can be described thus: Potentiation of oxacillin-mediated antibacterial activity against methicillin-resistant Staphylococcus aureus ATCC 43300 at 32 ug/ml after 20 to 24 hrs by CLSI method. The format is functional.
Data set [9] has as its system Staphylococcus aureus. The data set can be described thus: Potentiation of cephalothin-mediated antibacterial activity against methicillin-resistant Staphylococcus aureus ATCC 43300 assessed as decrease in cephalothin MIC at 32 ug/ml by checkerboard method relative to control. Type of data set: functional.
For data set [10], the system named is Staphylococcus aureus. The experiment in a line: Downregulation of mecA mRNA expression in methicillin-resistant Staphylococcus aureus ATCC 43300 at 32 ug/ml after 4 hrs by RT-PCR analysis in presence of oxacillin. The format is functional, organism-based.
Data set [11] relates to Staphylococcus aureus. The experiment in a line: Potentiation of oxacillin-mediated antibacterial activity against methicillin-resistant Staphylococcus aureus R313 clinical isolate assessed as decrease in oxacillin MIC at 32 ug/ml after 20 to 24 hrs by CLSI method relative to control. The format is functional.
Data set [12] has as its system Staphylococcus aureus. The data set can be described thus: Potentiation of oxacillin-mediated antibacterial activity against methicillin-resistant Staphylococcus aureus R15 clinical isolate at 32 ug/ml after 20 to 24 hrs by CLSI method. Type of data set: functional.
Data set [13] has as its system Staphylococcus aureus. The experiment in a line: Potentiation of oxacillin-mediated antibacterial activity against methicillin-resistant Staphylococcus aureus R49 clinical isolate at 16 ug/ml after 20 to 24 hrs by CLSI method. Type of data set: functional.
Data set [14] deals with Staphylococcus aureus. The experiment in a line: Potentiation of oxacillin-mediated antibacterial activity against methicillin-resistant Staphylococcus aureus R302 clinical isolate at 32 ug/ml after 20 to 24 hrs by CLSI method. The format is functional.
The test system of data set [15] is Staphylococcus aureus. The experiment in a line: Potentiation of cefuroxime mediated antibacterial activity against methicillin-resistant Staphylococcus aureus ATCC 43300 assessed as decrease in cefuroxime MIC at 32 ug/ml by checkerboard method relative to control. The format is functional.
Data set [16] relates to Staphylococcus aureus. The experiment in a line: Potentiation of oxacillin-mediated antibacterial activity against methicillin-resistant Staphylococcus aureus R304 clinical isolate assessed as decrease in oxacillin MIC at 32 ug/ml after 20 to 24 hrs by CLSI method relative to control. Type of data set: functional.
The subject of data set [17] is Staphylococcus aureus. The experiment in a line: Potentiation of oxacillin-mediated antibacterial activity against methicillin-resistant Staphylococcus aureus R302 clinical isolate assessed as decrease in oxacillin MIC at 32 ug/ml after 20 to 24 hrs by CLSI method relative to control. The format is functional.
In data set [18] the test system is Staphylococcus aureus. The data set can be described thus: Potentiation of oxacillin-mediated antibacterial activity against methicillin-resistant Staphylococcus aureus R308 clinical isolate at 32 ug/ml after 20 to 24 hrs by CLSI method. The format is functional.
In data set [19] the test system is Staphylococcus aureus. The data set can be described thus: Potentiation of oxacillin-mediated antibacterial activity against methicillin-resistant Staphylococcus aureus R49 clinical isolate assessed as decrease in oxacillin MIC at 16 ug/ml after 20 to 24 hrs by CLSI method relative to control. The format is functional.
In data set [20] the test system is Staphylococcus aureus. The data set can be described thus: Potentiation of oxacillin-mediated antibacterial activity against methicillin-resistant Staphylococcus aureus R53 clinical isolate assessed as decrease in oxacillin MIC at 16 ug/ml after 20 to 24 hrs by CLSI method relative to control. Type of data set: functional.

The source made the active and inactive calls. The rule behind the calls is not given here.

As usually defined, the MIC is the lowest concentration found to suppress growth.

For the molecule `CCCCCCCCCCCCOCc1cn([C@@H]2O[C@H](CO)[C@@H](O)[C@H](O)[C@H]2O)nn1`, the minimal inhibitory concentration (MIC) with Staphylococcus aureus [1] was less than 1 µg/mL; in the data set on Staphylococcus aureus [3], 8 µg/mL; in the data set with Staphylococcus aureus [7], less than 1 µg/mL; in the data set on Staphylococcus aureus [8], 1 µg/mL; in the data set with Staphylococcus aureus [11] it was 1 µg/mL; in the data set on Staphylococcus aureus [12] it was 64 µg/mL. Further, the MIC in the data set with Staphylococcus aureus [13] is less than 1 µg/mL; in the data set on Staphylococcus aureus [14] it was 128 µg/mL; with Staphylococcus aureus [16] it was 2 µg/mL; in the data set on Staphylococcus aureus [17], 4 µg/mL; in the data set on Staphylococcus aureus [18], 256 µg/mL; in the data set on Staphylococcus aureus [19], 8 µg/mL. Besides, in the data set with Staphylococcus aureus [20], the MIC is 8 µg/mL. Moreover, the outcome with Staphylococcus aureus [2] and in the data set on Staphylococcus aureus [10] was Active. Moreover, the Activity entry in the data set with HEK293 is given as “Non-toxic”. In addition, the “fold change (FC)” value in the data set on Staphylococcus aureus [4], in the data set on Staphylococcus aureus [5], in the data set with Staphylococcus aureus [6], in the data set with Staphylococcus aureus [9] and in the data set on Staphylococcus aureus [15] was “<=256” each time.
